Series [1] has as its system CRE K. pneumoniae. In kind it is cell-based, Klebsiella pneumoniae. Conditions: for bactericidal activity versus negative control Peptide P5: 2.5×10^5 cfu/ml; for function of alanine scan variants: 2 hours (FIGS. 21, 22).
Series [2] has as its system MDR S. Typhi. It is filed as cell-based, Salmonella enterica serovar Typhi. As to conditions: 50 μM, RPMI/HEPES, 2.5×10^5 cfu/ml.
The next series concerns CD45+/CD3+ T lymphocytes. Description: Host-targeted bioregulatory effects: in vivo recruitment/infiltration of T lymphocytes. Details: species or system C57BL/6 mice. Conditions: as stated in the sequence description; FIG. 12.
Series [3] can be described thus: Truncation of Peptide P9, retention of activity. Conditions: first 6 amino acids removed. The text has this:
In some embodiments, alanine scans are available for […] (SEQ ID NO: 11). The alanine scan was used to modify the malleable position 8 and to make a conservative substitution at alanine residue 12 with an alkenyl derivative of alanine, namely, 2-(4-pentenyl)alanine, and then the alkene groups at positions 8 and 12 were coupled/stapled. Thus, a modified peptide in accordance with the presently disclosed subject matter includes a coupled peptide or a stapled peptide. […] Further, the first 6 amino acids present in […] (SEQ ID NO: 11) can be removed one by one while still retaining activity; removing all 6 gives KNLLKAVSKERSKRSP (SEQ ID NO: 12). Further truncations are also provided, including from the other end (such as the two end residues based on the alanine scan).

The test system of series [4] is B. anthracis Sterne strain 7702 spores. It is filed as cell-based, Bacillus anthracis. Conditions: 50 μM, RPMI/HEPES+2% FBS, 3 hours post-treatment, 1.0×10^7 cfu/ml spores.
In another series the test system is K. pneumoniae ATCC 43816. Description: Full-thickness wound infection model. It is filed as in vivo, C57BL/6 mice.
For another series, the system named is trypsin protease. The series is described as follows: Resistance to proteolytic degradation (trypsin pretreatment, read out by killing of CRE K. pneumoniae). Conditions: trypsin 200:1 molar ratio, 2 hours, 50 mM Tris-HCl + 20 mM CaCl2.
The test system of series [5] is CRE K. pneumoniae.
The subject of a further series is N. gonorrhoeae. Conditions: 2 h, 22.4 μM.
For another series, the system named is MDR A. baumannii. Conditions: 2 h, 1.4 μM.
The subject of series [6] is MDR S. Typhi. Conditions: 2 h, 2.8 μM.
In a further series the test system is MDR P. aeruginosa. Conditions: 2 h, 5.6 μM.
The subject of a further series is MRSA. Conditions: 2 h, 11.2 μM.
For a further series, the system named is VRE. As to conditions: 2 h, 11.2 μM.
A further series deals with MDR Enterobacter cloacae. Conditions: 2 h, 16.8 μM.
The next series deals with B. anthracis. Conditions: 2 h, 22.4 μM.
The conditions of series [7]: assay media, higher concentrations.

Where a SMILES comes first, the peptide text is derived from it. Where no end group is shown, it is not given here. [ ]: non-standard residue; d: D form. ξ: configuration not given here. ξαMeGly(pent-4-enyl) = C=CCCCC(C)(N)C(=O)O

For the compound “LSRTVRCTCISI (Artificially synthesized antibacterial peptide or conjugate) [Peptide ΔVP, truncated Peptide P1 variant lacking the first two amino acids]”, the “bactericidal activity versus negative control Peptide P5” value in the series with CRE K. pneumoniae [1] (50 μM, RPMI/HEPES) is “statistically significant differences”; in the series on MDR S. Typhi [2], “statistically significant differences”. Besides, in the series with CD45+/CD3+ T lymphocytes, the immunomodulatory activity result is reported as “reduced or absent immunomodulatory activity”.

In the case of “KNLLKAVSKERSKRSP (Artificially synthesized antibacterial peptide or conjugate) [SEQ ID NO: 12, 16 amino acid core, truncated version of Peptide P9]”, the “retention of the activities of Peptide P9 after truncation” value in series [3] was “retains the activities of Peptide P9”.

With “PESKAIK(pA)LLK(pA)VSKERSKRSP (PESKAIK[ξαMeGly(pent-4-enyl)]LLK[ξαMeGly(pent-4-enyl)]VSKERSKRSP) [alkene-modified peptide, Peptide P9 variant with 2-(4-pentenyl)alanine at amino acids 8 and 12]”, in the series with CRE K. pneumoniae [1] (50 μM, RPMI/HEPES, 2 hours (FIG. 20)), the “activity of modified Peptide P9 variants relative to Peptide P9” value is “increased activity”.

In the case of RTVRCTCI [Peptide L8], in the series with CRE K. pneumoniae [1] (50 μM, RPMI/HEPES), the “bactericidal activity versus negative control Peptide P5” value is given as “killed CRE K. pneumoniae statistically significantly more effectively than Peptide P5”.

Regarding RTVRCTCI [Peptide D8], the “antimicrobial activity after incubation with trypsin” value in the series on CRE K. pneumoniae [1] (50 μM peptide pretreated with trypsin (200:1 molar ratio) for 2 hours) is “retaining antimicrobial activity”. Also, the “bactericidal activity versus negative control Peptide P5” value in the series on CRE K. pneumoniae [1] (50 μM, RPMI/HEPES) is on record as “statistically significant differences”; in the series with MDR S. Typhi [2] it was “statistically significant differences”. Besides, the “spore germination (numbers of bacilli)” value in series [4] was “reduced spore germination”. Moreover, the “survival (Kaplan-Meier) of infected mice” value in the series on K. pneumoniae ATCC 43816 (10 μl of 1.2% peptide in saline topically, 4 hours post-infection then twice per day for 4 days, versus saline) is reported as “statistically significant increase in survival”. Further, in the series with K. pneumoniae ATCC 43816 (same treatment, day 14 post-infection), the “bacterial burden of wound swabs on LB agar” value is on record as “No bacterial growth was observed”. In addition, in the series on K. pneumoniae ATCC 43816 (same treatment, through day 21), the “wound status over the course of infection” value was “bacterial infection was resolved and healing occurred”. Further, the “resistance to proteolytic degradation” value in the series with trypsin protease is reported as “resistant to proteolytic degradation”.

Take “ATVRCTCI (Artificially synthesized antibacterial peptide or conjugate) [SEQ ID NO: 25, alanine scan variant of Peptide L8, position 1]”: the “function of alanine scan variants” value in the series with CRE K. pneumoniae [1] (50 μM, RPMI/HEPES) was “still functional”.

Regarding “CSVPTITCRVRLIS (Artificially synthesized antibacterial peptide or conjugate) [Peptide P1scram]”, the “survival of bacteria following exposure (killing)” value in the series on MDR S. flexneri (2.8 μM peptide, FIG. 6) is “did not kill bacteria”; in the series with CRE K. pneumoniae [5] (2.8 μM peptide, FIG. 6), “did not kill bacteria”.

“L8-L8-L8: three copies of Peptide L8 concatemerized in head-to-tail configuration (RTVRCTCIRTVRCTCIRTVRCTCI; Artificially synthesized antibacterial peptide or conjugate) [Peptide L8-L8-L8]”: in the series on CRE K. pneumoniae [1] (50 μM, RPMI/HEPES), the “bactericidal activity versus negative control Peptide P5” value is given as “killed CRE K. pneumoniae statistically significantly more effectively than Peptide P5”.

As to “PESKAIKNLLKAVSKERSKRSPGGGVPLSRTVRCTCISI (Artificially synthesized antibacterial peptide or conjugate) [Peptide P59, Peptide P9 conjugated to Peptide P1 via a tri-glycine linker]”, the “spore germination (numbers of bacilli)” value in [4] is “reduced spore germination”.

In the case of “RAVRCTCI (Artificially synthesized antibacterial peptide or conjugate) [SEQ ID NO: 26, alanine scan variant of Peptide L8, position 2]”, the “function of alanine scan variants” value in the series on CRE K. pneumoniae [1] (50 μM, RPMI/HEPES) is given as “still functional”.

As to “VPLSRTVRTVRCTCISIGGGPESKAIKNLLKAVSKERSKRSP [Peptide P55]”, the “bactericidal activity versus negative control Peptide P5” value in the series with CRE K. pneumoniae [1] (50 μM, RPMI/HEPES) was “statistically significant differences”; with MDR S. Typhi [2], “statistically significant differences”.

Consider PESKAIKNLLKAVSKERSKRSP [Peptide P9], for which, in the series with CRE K. pneumoniae [1] (10 mM KPB/1% TSB, 2 hours at 37° C., FIG. 10), the “activity in hypotonic buffer” value is “had activity”. Besides, the “activity in RPMI (normosaline)” value in the series on CRE K. pneumoniae [1] (RPMI/HEPES, 2 hours at 37° C., FIG. 10) is “lost activity”. The killing of bacteria in the series with N. gonorrhoeae is reported as 99.0-99.9%.

As to `CC[C@H](C)[C@H](NC(=O)[C@H](CO)NC(=O)[C@@H](NC(=O)[C@H](CS)NC(=O)[C@@H](NC(=O)[C@H](CS)NC(=O)[C@H](CCCNC(=N)N)NC(=O)[C@@H](NC(=O)[C@@H](NC(=O)[C@H](CCCNC(=N)N)NC(=O)[C@H](CO)NC(=O)[C@H](CC(C)C)NC(=O)[C@@H]1CCCN1C(=O)[C@@H](N)C(C)C)[C@@H](C)O)C(C)C)[C@@H](C)O)[C@@H](C)CC)C(=O)O` [Peptide P1, VPLSRTVRCTCISI] (H-VPLSRTVRCTCISI-OH; N-terminus and C-terminus assumed), the killing of bacteria in the series on MDR A. baumannii is 99.0-99.9%; in the series with MDR S. flexneri (MDR, 2 h, 2.8 μM), 99.0-99.9%; in the series with MDR S. Typhi [6], 99.0-99.9%; in the series with CRE K. pneumoniae [5] (CRE, 2 h, 5.6 μM), 99.0-99.9%; in the series with MDR P. aeruginosa, 99.0-99.9%; with MRSA, 99.0-99.9%. Also, the killing of bacteria in the series on VRE, in the series with MDR Enterobacter cloacae, in the series with N. gonorrhoeae and with B. anthracis was 99.0-99.9% throughout. For the same compound, the solubility result in [7] is reported as “experienced solubility issues at higher concentrations”.
